Reference: ChEMBL document CHEMBL1131944, “Phospholipase A2-like catalytic antibody” (Bioorg Med Chem Lett, 1999)
pKi: −log10 of the molar value.

Legend:
[1] = The catalytic rate constant in the hydrolysis by 13C-1F6 was determined by Michaelis-Menten Kinetics.; type: ADME
[2] = tested on: 13C-1F6; test: Michaelis-Menten Kinetic rate constant in the hydrolysis by 13C-1F6 was determined.; type: ADME
[3] = Compound was tested for the inhibition of antibody-catalyzed hydrolysis.

k cat [1] | Km [2] | pKi [3] | Structure (SMILES)
0.00017 s⁻¹ | 71 µM | – | CCCCCCCCCC(=O)OCC(COP(=O)([O-])OCC[N+](C)(C)C)OC(=O)CCCCCCC (racemic) [ESTER OF PHOSPHOLIPID]
– | – | 5.00 | CCCCCCCCCCP(=O)(O)OC(COCCCCCCCCCC(=O)OC)COP(=O)([O-])OCC[N+](C)(C)C (stereo not drawn) [ESTER OF PHOSPHOLIPID]
